Results from patent publication US4246413A, “6-Oxamorphinans” (priority 1979, dated 1981).

Assays:
[1] = assay type: in vivo
[2] = oxymorphone-induced Straub tail test for antagonist activity; assay type: in vivo

Structure (SMILES) | Agonist Activity ED50, Mice (SC) [1] [mg/kg] | Agonist Activity ED50, Mice (PO) ([1]; PO) [mg/kg] | times as potent as morphine sulfate, orally ([1]; mice, oral, relative to morphine sulfate) | ED50 ([2]; sc, read-out: subcutaneous ED50, antagonist activity) [mg/kg] | times the antagonist activity of butorphanol ([2]; subcutaneous, relative to butorphanol)
COc1ccc2c(c1)[C@]13CCN(C)[C@H](C2)[C@@H]1CC(C)(C)OC3.Cl (racemic) [BL-6028, 3-Methoxy-7,7,17-trimethyl-6-oxamorphinan Hydrochloride] | 0.053 |  |  |  | 
CN1CC[C@]23COC(C)(C)C[C@H]2[C@H]1Cc1ccc(O)cc13 (racemic) [BL-6092, 3-Hydroxy-7,7,17-trimethyl-6-oxamorphinan] | 0.038 |  |  |  | 
CC1(C)C[C@H]2[C@H]3Cc4ccc(O)cc4[C@@]2(CCN3CC2CC2)CO1.Cl (racemic) [BL-6097, 17-Cyclopropylmethyl-7,7-dimethyl-3-hydroxy-6-oxamorphinan Hydrochloride] | 0.083 | 0.35 | about 8.9 times | 0.8 | about 1.2 times
